Measurements published in patent US5739162A, “Carbamoylmethylurea derivatives” (Shionogi & Co., Ltd., priority 1994, dated 1998).
Where a name gives a salt, the structure may show the parent alone.

Assays:
[1] = biological target: T1, gastrin receptor (Cavia porcellus, UniProt H0VZC5); assay: Gastrin receptor antagonism: displacement of 125I-labeled gastrin from gastric glands; type: binding, guinea pig (male Hartley); settings: guinea pig fundic gastric glands; 125I-gastrin 0.2 nM; 30 min, 25° C.
T1 construct: stomach was extracted from each animal immediately, from which gastric glands were prepared; from tissue; host or cells: gastric (fundic) glands of male Hartley guinea pigs
T1 sequence (H0VZC5 1-426): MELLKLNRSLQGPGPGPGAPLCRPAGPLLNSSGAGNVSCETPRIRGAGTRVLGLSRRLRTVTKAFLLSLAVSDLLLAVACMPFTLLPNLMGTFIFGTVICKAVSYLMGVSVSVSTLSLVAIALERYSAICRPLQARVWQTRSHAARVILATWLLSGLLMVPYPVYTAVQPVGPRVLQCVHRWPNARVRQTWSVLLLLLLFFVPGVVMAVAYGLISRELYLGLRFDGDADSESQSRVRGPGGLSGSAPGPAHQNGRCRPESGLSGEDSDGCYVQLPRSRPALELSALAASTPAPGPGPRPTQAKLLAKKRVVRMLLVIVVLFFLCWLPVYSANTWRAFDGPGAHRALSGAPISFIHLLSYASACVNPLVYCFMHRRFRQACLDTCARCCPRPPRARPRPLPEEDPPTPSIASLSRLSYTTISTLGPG
Procedure: (§1) The pharmacological effect of compounds (I) prepared in Examples above were evaluated in vitro with respect to antagonistic activity against gastrin receptor, CCK-B receptor or CCK-A receptor, using fundic gland cells of guinea pig, crude membrane specimen from mouse cerebral cortex, or crude membrane specimen from mouse pancreas, respectively.
(§2) Male Hartley guinea pig (450-600 g) or male ddY mouse (24-30 g) were used.
(1) Gastrin Receptor Antagonism
Preparation of gastric glands
Male Hadley guinea pigs (450-600 g) were killed by bleeding and stomach was extracted from each animal immediately, from which gastric glands were prepared.
Preparation of test compounds and procedures of displacing assay A 1M solution of a compound to be tested in DMSO is prepared and diluted with 50% DMSO to obtain a ten-fold dilution series.
The reaction is initiated by the addition of gastric glands to solutions of different concentration each containing ^125 I-labeled gastrin (final concentration, 0.2 nM). The mixture is incubated for 30 min at 25° C., centrifuged at 2000 rpm for 5 min and the supernatant is removed by aspiration. To the pellet is added ice-cooled incubation buffer and mixed gently, followed by an immediate centrifugation and removal of the supernatant by aspiration. The radioactivity is counted on gamma counter. The same procedure was repeated using 50% DMSO solution or human gastrin I (final concentration, 2 μM) instead of a solution of test compound so as to obtain the control value regarding total binding or the value regarding non-specific binding, respectively.
(§3) The IC50 was determined by plotting the ratio (%) of specific binding of a test compound to that of control on semilogarithmic graph and obtaining the concentration corresponding to 50%, wherein: specific binding of control=total binding (cpm)--non-specific binding (cpm); and specific binding of test compound=total binding (cpm)--non-specific binding (cpm).

[2] = biological target: T2, CCK-A receptor (Mus musculus, UniProt O08786); assay: CCK-A receptor antagonism: displacement of [3H]CCK-8 from crude membrane of pancreas; type: binding, mouse (male ddY); settings: [3H]CCK-8 1 nM, 90 min, 25° C.
T2 construct: crude membrane specimen from mouse pancreas; from tissue; host or cells: pancreas of male ddY mice, crude membranes
T2 sequence (O08786 1-436): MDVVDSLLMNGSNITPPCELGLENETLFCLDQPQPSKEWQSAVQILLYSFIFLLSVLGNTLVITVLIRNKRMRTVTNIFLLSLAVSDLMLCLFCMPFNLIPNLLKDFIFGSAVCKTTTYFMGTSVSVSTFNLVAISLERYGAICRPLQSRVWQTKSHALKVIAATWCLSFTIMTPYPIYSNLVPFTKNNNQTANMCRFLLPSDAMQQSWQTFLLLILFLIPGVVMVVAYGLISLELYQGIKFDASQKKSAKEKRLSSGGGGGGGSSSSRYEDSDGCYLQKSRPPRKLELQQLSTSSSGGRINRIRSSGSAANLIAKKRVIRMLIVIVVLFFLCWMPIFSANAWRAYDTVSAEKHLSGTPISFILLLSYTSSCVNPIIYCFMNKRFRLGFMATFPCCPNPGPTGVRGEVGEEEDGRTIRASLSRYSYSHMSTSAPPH
Procedure: as §1, §2
(§4) (2) CCK-A Receptor Antagonism and CCK-B Receptor Antagonism Preparation of CCK receptor preparations Male ddY mice (24 to 30 g) were killed by decapitation and cerebral cortex (CCK-B) and pancreas (CCK-A) were extracted immediately. Each of cerebral cortex and pancreas was mixed with 50 mM Tris-HCl buffer (pH 7.4) and homogenized with a teflon-glass homogenizer and polytron homogenizer to obtain crude membrane specimens.
(§5) Preparation of test compounds and procedures of displacing assay
(§6) A 1M solution of a compound to be tested in DMSO is prepared and diluted with 50% DMSO to obtain a ten-fold dilution series.
(§7) The reaction is initiated by the addition of crude membrane specimen to solutions of different concentration each containing [^3 H]CCk-8 (final concentration, 1 nM). The mixture is incubated for 90 min at 25° C., filtered through glass filter with aspiration and washed with a cooled 50 mM Tris buffer. After the addition of Aquazol-2 cocktail the radioactivity is counted. The same procedure was repeated using 50% DMSO solution or Ceruletide (final concentration, 1 μM) instead of a solution of test compound so as to obtain the control value regarding total binding or the value regarding non-specific binding, respectively.
as §3

[3] = biological target: T3, CCK-B receptor (Mus musculus, UniProt P56481); assay: CCK-B receptor antagonism: displacement of [3H]CCK-8 from crude membrane of cerebral cortex; type: binding, mouse (male ddY); settings: [3H]CCK-8 1 nM, 90 min, 25° C.
T3 construct: crude membrane specimen from mouse cerebral cortex; from tissue; host or cells: cerebral cortex of male ddY mice, crude membranes
T3 sequence (P56481 1-453): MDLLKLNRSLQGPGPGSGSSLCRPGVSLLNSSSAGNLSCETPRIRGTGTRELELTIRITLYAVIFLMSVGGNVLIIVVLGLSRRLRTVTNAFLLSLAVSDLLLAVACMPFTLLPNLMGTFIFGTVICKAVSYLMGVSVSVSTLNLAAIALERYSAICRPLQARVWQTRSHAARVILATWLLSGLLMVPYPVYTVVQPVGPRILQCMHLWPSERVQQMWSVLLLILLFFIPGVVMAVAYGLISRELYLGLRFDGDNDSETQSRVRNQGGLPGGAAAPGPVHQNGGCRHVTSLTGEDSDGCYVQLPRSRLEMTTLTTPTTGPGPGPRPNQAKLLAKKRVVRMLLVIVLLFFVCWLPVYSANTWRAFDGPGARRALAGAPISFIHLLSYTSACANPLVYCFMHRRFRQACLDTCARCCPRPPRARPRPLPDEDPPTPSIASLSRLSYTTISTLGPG
Procedure: as §1, §2, §4, §5, §6, §7, §3

[4] = test system: gastric acid secretion; assay: Inhibitory effect on pentagastrin-stimulated gastric acid secretion in anesthetized rat (perfused stomach, Schild method); type: in vivo, rat (Sprague Dawley); settings: intraduodenal (i.d.), 0.5% M.C. suspension
Source text: Anti-acid secreting function of carbamoylmethylurea derivative (I) of the present invention has been confirmed by the in vivo experiment (cf. Schild Method; Experiment 1 below). […] From the results of these experiments, it is apparent that the carbamoylmethylurea derivative (I) has an anti-acid secreting function, and is an excellent gastrin receptor antagonist and/or CCK-B receptor antagonist which has enough functional separativeness from CCK-A receptor.
Experiment 1 In Vivo Test
Evaluation of Inhibitory Effect on Gastric Acid Secretion by Child Method
Twenty four hour starved (ad libitum for water) male Sprague Daily rats (8-week-old) were anesthetized with urethane (1.5 g/kg S.C.) and kept breathing with esophagus cannulas. After laparotomy, esophagus cannulas were inserted orally up to proventriculus and ligated around gastric cardiac. Perfusion cannulas were inserted from duodenum into stomach and ligated around pylorus. Another cannulas were placed into duodenum and ligated for administration of drug. After sutra of abdomen, stomach was perfused via the esophagus cannulas with physiological saline (37° C.) while collecting perfusate for a 15 min interval. The perfusate was subjected to titration with 0.001N NaOH solution to determine the acidity. When the basal acid secretion became stable, pentagastrin ([…])was administered in a sustained manner via common carotid vein for about 90 min until the acid secretion reached approximately the highest level, when a test compound (0.5% M.C. suspension) was administered into duodenum through cannulas. The perfusate was collected for a 15 min interval to monitor the acid secretion for 90 min. The percent inhibition was calculated as follows:
Percent inhibition (%)=100×(A-B)/(C-B)
A: the minimum value of total acidity observed after the administration of a test compound;
B: the total acidity obtained immediately before the administration of pentagastrin; and
C: the total acidity obtained immediately before the administration of a test compound.

| Compound | IC50 [1] [nM] | IC50 [2] [nM] | IC50 [3] [nM] | Inhibitory Effect on acid secretion in rat ED50, i.d. [4] [µg/kg] | Inhibitory Effect on acid secretion in rat ED50, i.d. ([4]; sodium salt) [µg/kg] |
| --- | --- | --- | --- | --- | --- |
| CC(C)(C)OC(=O)CN(C(=O)CNC(=O)Nc1cccc(C(=O)O)c1)c1ccccc1C(=O)c1ccccc1 [Compound 8h] | 4 | 5000 | 64 | 14 | – |
| CC(C)(C)OC(=O)CN(C(=O)CNC(=O)Nc1cccc(C(=O)O)c1)c1ccccc1C(=O)c1ccccc1 [Compound 8ha, 2-[(tert-Butoxycarbonylmethyl)-[3-(m-(carboxylphenyl)ureidomethylcarbonyl]]aminobenzophenone sodium salt] | 2 | 3400 | 42 | – | 3 |
